According to ChEMBL document CHEMBL4334471, “Discovery of 1,8-disubstituted-[1,2,3]triazolo[4,5-c]quinoline derivatives as a new class of Hippo signaling pathway inhibitors” (Bioorg Med Chem Lett, 2019):

Columns and labels:
[1] = target: Aurora kinase C (Homo sapiens) (UniProt Q9UQB9); experiment: Inhibition of recombinant human Aurora C (35 to end residues) assessed as residual activity at 10 uM using AKRRRLSSLRA as substrate incubated for 40 mins in presence of [gamma-33ATP] by scintillation counting based radiometry assay relative to control
Chain of Aurora kinase C (Homo sapiens) (Q9UQB9 whole entry): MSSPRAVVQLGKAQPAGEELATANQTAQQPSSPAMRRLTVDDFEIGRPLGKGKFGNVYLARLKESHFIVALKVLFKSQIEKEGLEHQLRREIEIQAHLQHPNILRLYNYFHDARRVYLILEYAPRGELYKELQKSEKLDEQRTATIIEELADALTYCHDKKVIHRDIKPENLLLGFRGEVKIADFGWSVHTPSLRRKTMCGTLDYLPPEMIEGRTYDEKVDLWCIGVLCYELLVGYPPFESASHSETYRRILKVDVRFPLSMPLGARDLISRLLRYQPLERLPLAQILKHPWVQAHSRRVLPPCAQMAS

[2] = tested on: Tyrosine-protein kinase BTK (Homo sapiens), Q06187 [R28H]; experiment: Inhibition of recombinant full length human BTK R28H mutant assessed as residual activity at 10 uM using LSNLYHQGKFLQTFCGSPLYRRR substrate incubated for 40 mins in presence of [gamma-33ATP] by scintillation counting based radiometry assay relative to control
[3] = target: Calcium/calmodulin-dependent protein kinase type 1B (Homo sapiens) (UniProt Q6P2M8); experiment: Inhibition of recombinant full length human CaMKIbeta assessed as residual activity at 10 uM using KKLRRTLSFAEP as substrate incubated for 40 mins in presence of [gamma-33ATP] by scintillation counting based radiometry assay relative to control
[4] = tested on: Epidermal growth factor receptor (Homo sapiens), P00533 [L858R]; experiment: Inhibition of recombinant human EGFR L858R mutant (696 to end residues) assessed as residual activity at 10 uM using poly(Glu, Tyr) 4:1 as substrate at 40 mins in presence of [gamma-33ATP] by scintillation counting based radiometry assay relative to control
[5] = target: Tyrosine-protein kinase Fer (Homo sapiens) (UniProt P16591); experiment: Inhibition of recombinant human FER (541 to end residues) assessed as residual activity at 10 uM using KKKSPGEYVNIEF as substrate at 40 mins in presence of [gamma-33ATP] by scintillation counting based radiometry assay relative to control
[6] = target: Eukaryotic translation initiation factor 2-alpha kinase 1 (Homo sapiens) (UniProt Q9BQI3); experiment: Inhibition of human HRI (140 to end residues) assessed as residual activity at 10 uM using RSRSRSRSRSRSR as substrate after 120 mins by [gamma-33ATP] radiometric assay relative to control
Chain of Eukaryotic translation initiation factor 2-alpha kinase 1 (Homo sapiens) (Q9BQI3 whole entry): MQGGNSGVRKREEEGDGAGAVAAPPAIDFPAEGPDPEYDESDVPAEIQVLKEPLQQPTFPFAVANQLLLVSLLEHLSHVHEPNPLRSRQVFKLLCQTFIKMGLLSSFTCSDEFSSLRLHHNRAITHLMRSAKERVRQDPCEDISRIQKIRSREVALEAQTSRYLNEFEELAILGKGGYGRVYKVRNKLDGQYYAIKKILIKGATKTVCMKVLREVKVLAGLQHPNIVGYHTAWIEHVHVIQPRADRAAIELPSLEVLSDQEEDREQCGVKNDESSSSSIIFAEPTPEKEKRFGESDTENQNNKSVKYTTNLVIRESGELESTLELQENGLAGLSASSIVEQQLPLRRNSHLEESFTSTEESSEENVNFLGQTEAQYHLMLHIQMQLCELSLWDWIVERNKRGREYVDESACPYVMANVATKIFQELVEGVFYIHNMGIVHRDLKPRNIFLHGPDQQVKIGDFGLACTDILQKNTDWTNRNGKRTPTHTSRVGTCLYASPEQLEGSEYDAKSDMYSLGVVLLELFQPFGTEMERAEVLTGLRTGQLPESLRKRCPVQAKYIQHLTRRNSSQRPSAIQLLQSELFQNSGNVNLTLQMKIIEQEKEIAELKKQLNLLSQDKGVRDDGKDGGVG

[7] = target: Interleukin-1 receptor-associated kinase 1 (Homo sapiens) (UniProt P51617); experiment: Inhibition of human IRAK1 (194 to end residues) assessed as residual activity at 10 uM using myelin basic protein as substrate after 40 mins by [gamma-33ATP] radiometric assay relative to control
[8] = species on record: Homo sapiens; experiment: Inhibition of recombinant human MAPKAPK2 A399G mutant (46 to end residues) assessed as residual activity at 10 uM using KKLNRTLSVA as substrate incubated for 40 mins in presence of [gamma-33ATP by scintillation counting based radiometry assay relative to control
[9] = target: Mitogen-activated protein kinase kinase kinase 3 (Homo sapiens) (UniProt Q99759); experiment: Inhibition of recombinant full length human MEKK3 assessed as residual activity at 10 uM using myelin basic protein as substrate incubated for 120 mins in presence of [gamma-33ATP by scintillation counting based radiometry assay relative to control
Chain of Mitogen-activated protein kinase kinase kinase 3 (Homo sapiens) (Q99759 whole entry, the tested form may be a part): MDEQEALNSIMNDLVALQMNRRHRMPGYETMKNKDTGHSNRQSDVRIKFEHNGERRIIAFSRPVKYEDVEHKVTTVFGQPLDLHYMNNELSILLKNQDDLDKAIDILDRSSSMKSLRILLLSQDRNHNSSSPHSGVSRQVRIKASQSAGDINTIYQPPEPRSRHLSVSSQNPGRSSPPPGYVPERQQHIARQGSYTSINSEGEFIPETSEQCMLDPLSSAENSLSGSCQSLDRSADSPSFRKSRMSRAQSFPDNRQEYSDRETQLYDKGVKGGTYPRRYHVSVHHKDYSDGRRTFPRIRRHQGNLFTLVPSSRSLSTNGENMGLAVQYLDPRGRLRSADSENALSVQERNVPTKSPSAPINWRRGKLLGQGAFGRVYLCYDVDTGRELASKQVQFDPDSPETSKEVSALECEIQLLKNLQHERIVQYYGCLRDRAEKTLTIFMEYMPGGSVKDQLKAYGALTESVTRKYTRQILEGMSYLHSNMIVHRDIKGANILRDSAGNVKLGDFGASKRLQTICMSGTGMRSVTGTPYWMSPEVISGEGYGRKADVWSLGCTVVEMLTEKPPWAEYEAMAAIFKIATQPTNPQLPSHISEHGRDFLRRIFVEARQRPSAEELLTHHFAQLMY

[10] = target: Mitogen-activated protein kinase kinase kinase 9 (Homo sapiens) (UniProt P80192); experiment: Inhibition of recombinant human MLK1 (134 to 414 residues) assessed as residual activity at 10 uM using casein as substrate incubated for 40 mins in presence of [gamma-33ATP by scintillation counting based radiometry assay relative to control
Chain of Mitogen-activated protein kinase kinase kinase 9 (Homo sapiens) (P80192 whole entry, looked up, the tested form may be a part): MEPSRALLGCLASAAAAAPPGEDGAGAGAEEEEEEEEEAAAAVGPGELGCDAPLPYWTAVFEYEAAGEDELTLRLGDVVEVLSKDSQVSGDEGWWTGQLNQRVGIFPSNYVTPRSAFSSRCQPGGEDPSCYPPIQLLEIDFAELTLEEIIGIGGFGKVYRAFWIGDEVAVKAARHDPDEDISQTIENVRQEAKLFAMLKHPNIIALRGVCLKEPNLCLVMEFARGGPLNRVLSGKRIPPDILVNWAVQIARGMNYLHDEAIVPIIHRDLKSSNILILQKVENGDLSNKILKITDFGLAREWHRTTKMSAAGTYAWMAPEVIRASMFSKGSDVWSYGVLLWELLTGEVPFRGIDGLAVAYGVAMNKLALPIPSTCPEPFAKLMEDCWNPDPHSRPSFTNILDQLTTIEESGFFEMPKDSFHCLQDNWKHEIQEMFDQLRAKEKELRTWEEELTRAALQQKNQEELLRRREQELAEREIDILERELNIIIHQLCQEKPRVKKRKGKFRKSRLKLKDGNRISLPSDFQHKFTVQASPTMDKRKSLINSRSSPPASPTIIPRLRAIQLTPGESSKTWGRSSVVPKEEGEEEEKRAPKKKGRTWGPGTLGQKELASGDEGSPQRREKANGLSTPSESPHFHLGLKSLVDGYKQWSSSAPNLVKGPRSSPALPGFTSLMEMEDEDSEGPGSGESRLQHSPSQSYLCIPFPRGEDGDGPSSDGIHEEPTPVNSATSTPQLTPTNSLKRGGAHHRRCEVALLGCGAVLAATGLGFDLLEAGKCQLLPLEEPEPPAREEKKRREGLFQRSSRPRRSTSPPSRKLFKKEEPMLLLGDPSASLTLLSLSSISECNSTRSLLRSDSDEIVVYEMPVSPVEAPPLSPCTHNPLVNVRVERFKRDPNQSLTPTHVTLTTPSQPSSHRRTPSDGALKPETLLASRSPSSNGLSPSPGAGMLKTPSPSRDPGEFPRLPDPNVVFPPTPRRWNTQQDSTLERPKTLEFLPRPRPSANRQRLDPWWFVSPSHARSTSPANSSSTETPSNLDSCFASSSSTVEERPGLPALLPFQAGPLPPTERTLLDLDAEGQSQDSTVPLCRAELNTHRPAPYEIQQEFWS

[11] = target: FKBP12A/mTOR (Homo sapiens) (UniProt P62942+P42345); experiment: Inhibition of recombinant full length human mTOR/FKBP12 assessed as residual activity at 10 uM measured after 40 mins in presence of [gamma33P]ATP by scintillation counting based radiometry assay relative to control; assay type: protein-complex assay
Chain of FKBP12A/mTOR (Homo sapiens) (P62942 2-108 limits assumed, other chains not shown): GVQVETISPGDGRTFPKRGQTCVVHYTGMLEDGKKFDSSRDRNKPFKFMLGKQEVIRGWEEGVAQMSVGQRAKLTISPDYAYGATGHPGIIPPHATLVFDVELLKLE

[12] = target: Myosin light chain kinase 2, skeletal/cardiac muscle (Homo sapiens) (UniProt Q9H1R3); experiment: Inhibition of recombinant full length human MYLK2 assessed as residual activity at 10 uM using KKLNRTLSFAEPG as substrate measured after 40 mins in presence of [gamma33P]ATP by scintillation counting based radiometry assay relative to control
Chain of Myosin light chain kinase 2, skeletal/cardiac muscle (Homo sapiens) (Q9H1R3 whole entry): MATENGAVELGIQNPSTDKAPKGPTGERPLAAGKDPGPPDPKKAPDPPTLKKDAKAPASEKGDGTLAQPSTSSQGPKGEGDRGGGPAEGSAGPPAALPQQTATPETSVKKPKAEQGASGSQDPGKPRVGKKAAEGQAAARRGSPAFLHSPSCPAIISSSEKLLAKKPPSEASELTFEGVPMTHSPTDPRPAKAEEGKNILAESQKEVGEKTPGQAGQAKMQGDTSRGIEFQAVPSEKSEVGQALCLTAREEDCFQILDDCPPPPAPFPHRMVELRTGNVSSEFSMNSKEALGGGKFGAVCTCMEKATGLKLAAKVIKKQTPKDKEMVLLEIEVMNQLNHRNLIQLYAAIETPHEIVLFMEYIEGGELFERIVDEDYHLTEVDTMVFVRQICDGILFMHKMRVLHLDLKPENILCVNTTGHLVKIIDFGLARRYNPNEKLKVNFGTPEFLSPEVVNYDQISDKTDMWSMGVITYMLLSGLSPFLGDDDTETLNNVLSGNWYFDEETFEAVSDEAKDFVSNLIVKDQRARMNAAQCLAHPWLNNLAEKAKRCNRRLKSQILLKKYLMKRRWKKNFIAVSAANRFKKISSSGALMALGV

[13] = target: Serine/threonine-protein kinase PAK 4 (Homo sapiens) (UniProt O96013); experiment: Inhibition of recombinant human PAK4 (295 to end residues) assessed as residual activity at 10 uM using myelin basic protein as substrate measured after 40 mins in presence of [gamma33P]ATP by scintillation counting based radiometry assay relative to control
[14] = target: Eukaryotic translation initiation factor 2-alpha kinase 3 (Homo sapiens) (UniProt Q9NZJ5); experiment: Inhibition of human PEK (536 to end residues) assessed as residual activity at 10 uM using RSRSRSRSRSRSRSR as substrate measured after 40 mins in presence of [gamma33P]ATP by scintillation counting based radiometry assay relative to control
Chain of Eukaryotic translation initiation factor 2-alpha kinase 3 (Homo sapiens) (Q9NZJ5 whole entry): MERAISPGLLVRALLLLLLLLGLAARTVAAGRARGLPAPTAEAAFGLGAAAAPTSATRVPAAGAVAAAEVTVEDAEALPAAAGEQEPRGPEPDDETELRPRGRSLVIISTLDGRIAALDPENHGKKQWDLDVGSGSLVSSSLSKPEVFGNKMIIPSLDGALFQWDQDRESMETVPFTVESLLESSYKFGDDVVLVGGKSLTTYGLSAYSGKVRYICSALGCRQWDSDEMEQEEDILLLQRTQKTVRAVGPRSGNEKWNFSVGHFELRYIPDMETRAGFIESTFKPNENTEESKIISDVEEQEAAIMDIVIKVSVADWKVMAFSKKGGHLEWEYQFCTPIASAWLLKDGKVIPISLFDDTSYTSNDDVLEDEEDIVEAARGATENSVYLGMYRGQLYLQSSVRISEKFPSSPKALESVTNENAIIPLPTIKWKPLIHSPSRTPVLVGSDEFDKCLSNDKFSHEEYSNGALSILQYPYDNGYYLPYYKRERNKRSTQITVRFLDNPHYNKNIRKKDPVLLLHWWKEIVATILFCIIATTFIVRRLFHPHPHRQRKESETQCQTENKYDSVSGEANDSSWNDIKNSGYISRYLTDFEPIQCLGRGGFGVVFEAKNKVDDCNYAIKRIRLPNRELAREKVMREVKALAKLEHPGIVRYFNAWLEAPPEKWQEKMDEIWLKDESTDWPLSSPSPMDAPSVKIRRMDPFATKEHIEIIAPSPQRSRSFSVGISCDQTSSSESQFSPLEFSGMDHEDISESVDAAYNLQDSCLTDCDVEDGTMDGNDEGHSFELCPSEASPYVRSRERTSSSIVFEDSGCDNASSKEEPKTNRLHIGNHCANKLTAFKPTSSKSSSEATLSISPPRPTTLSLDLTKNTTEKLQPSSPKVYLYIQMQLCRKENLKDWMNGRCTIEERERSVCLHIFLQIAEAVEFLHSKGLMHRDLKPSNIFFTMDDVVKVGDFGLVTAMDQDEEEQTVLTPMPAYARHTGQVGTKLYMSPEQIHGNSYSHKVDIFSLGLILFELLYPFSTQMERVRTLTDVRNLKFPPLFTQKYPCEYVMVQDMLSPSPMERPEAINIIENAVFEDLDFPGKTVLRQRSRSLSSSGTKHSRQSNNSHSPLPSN

[15] = target: Platelet-derived growth factor receptor alpha (Homo sapiens) (UniProt P16234); experiment: Inhibition of human PDGFRalpha (550 to end residues) assessed as residual activity at 10 uM using poly(Glu, Tyr) 4:1 as substrate measured after 40 mins in presence of [gamma33P]ATP by scintillation counting based radiometry assay relative to control
[16] = target: Serine/threonine-protein kinase pim-3 (Homo sapiens) (UniProt Q86V86); experiment: Inhibition of recombinant human Pim3 (2 to end residues) assessed as residual activity at 10 uM using RSRHSSYPAG as substrate incubated for 40 mins in presence of [gamma33P]ATP by scintillation counting based radiometry assay relative to control
[17] = target: Protein kinase C zeta type (Homo sapiens) (UniProt Q05513); experiment: Inhibition of recombinant human PKCzeta (2 to end residues) assessed as residual activity at 10 uM using ERMRPRKRQGSVRRRV as substrate incubated for 40 mins in presence of [gamma33P]ATP by scintillation counting based radiometry assay relative to control
[18] = target: Serine/threonine-protein kinase PLK3 (Homo sapiens) (UniProt Q9H4B4); experiment: Inhibition of recombinant human Plk3 (19 to 301 residues) assessed as residual activity at 10 uM using casein as substrate incubated for 40 mins in presence of [gamma33P]ATP by scintillation counting based radiometry assay relative to control
[19] = target: Tyrosine-protein kinase SYK (Homo sapiens) (UniProt P43405); experiment: Inhibition of recombinant human full length SYK assessed as residual activity at 10 uM using poly(Glu, Tyr) 4:1 as substrate incubated for 40 mins in presence of [gamma33P]ATP by scintillation counting based radiometry assay relative to control
[20] = target: Serine/threonine-protein kinase VRK2 (Homo sapiens) (UniProt Q86Y07); experiment: Inhibition of recombinant human VRK2 (1 to 336 residues) assessed as residual activity at 10 uM using casein as substrate incubated for 40 mins in presence of [gamma33P]ATP by scintillation counting based radiometry assay relative to control
Chain of Serine/threonine-protein kinase VRK2 (Homo sapiens) (Q86Y07 whole entry, the tested form may be a part): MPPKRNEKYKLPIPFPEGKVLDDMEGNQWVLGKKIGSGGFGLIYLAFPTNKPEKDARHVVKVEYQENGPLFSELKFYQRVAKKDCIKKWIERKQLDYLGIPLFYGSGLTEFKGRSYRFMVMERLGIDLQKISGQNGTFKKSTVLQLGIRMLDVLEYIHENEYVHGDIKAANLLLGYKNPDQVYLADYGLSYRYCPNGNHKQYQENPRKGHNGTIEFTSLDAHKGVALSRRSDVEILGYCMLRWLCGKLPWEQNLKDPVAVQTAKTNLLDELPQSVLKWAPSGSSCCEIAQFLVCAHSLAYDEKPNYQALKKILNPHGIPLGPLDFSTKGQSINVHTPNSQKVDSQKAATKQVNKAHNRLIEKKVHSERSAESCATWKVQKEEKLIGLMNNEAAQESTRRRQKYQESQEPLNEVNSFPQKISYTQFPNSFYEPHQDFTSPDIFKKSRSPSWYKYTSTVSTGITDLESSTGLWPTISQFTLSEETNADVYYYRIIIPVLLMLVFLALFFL

[21] = tested on: A549; experiment: Inhibition of hippo signalling protein in human A549 cells cotransfected with CTGF promoter-driven firefly luciferase and CMV promoter-driven renilla luciferase gene assessed as increase in CTGF expression at 10 uM incubated for 24 hrs by dual-luciferase gene assay relative to control

Structure (SMILES): C[C@@H](c1ccccc1)n1nnc2cnc3ccc(-c4cnc5[nH]ccc5c4)cc3c21
- Activity [1]: 68%
- Activity [2]: 116%
- Activity [3]: 67%
- Activity [4]: 40%
- Activity [5]: 83%
- Activity [6]: 91%
- Activity [7]: 84%
- Activity [8]: 67%
- Activity [9]: 92%
- Activity [10]: 41%
- Activity [11]: -1%
- Activity [12]: 70%
- Activity [13]: 88%
- Activity [14]: 94%
- Activity [15]: 95%
- Activity [16]: 83%
- Activity [17]: 84%
- Activity [18]: 71%
- Activity [19]: 41%
- Activity [20]: 80%
- fold change (FC) [21]: 13.5
